Among the test systems are SN12C; SNB-75; SK-MEL-28; MOLT-4; HT-29; MDA-MB-231; NCI/ADR-RES; UACC-62; OVCAR-8; HOP-92; MDA-N; TK-10; SW-620; UO-31; ACHN; COLO 205; SK-OV-3; OVCAR-3; CCRF-CEM; SF-295.
Common to all, as to test: DTP human tumour cell line panel, 48 h

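All cell lines were grown in 96-well plates and treated with compound for 48 hours. At the GI50, growth is halved.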 Activity calls are given as the source filed them. Cut-off read from the data, not from the text of the source: active = GI50 up to about 1.1 µM and inactive = higher. Bounds are passed on as bounds.

11 compounds from ChEMBL document CHEMBL1201862, “PubChem BioAssay data set” (2004) can be followed below.

For `Oc1cc(/C=C/c2ccccc2)nc2cc3c(cc12)OCO3`, the GI50 with SN12C was 6.04 µM (inactive); in the assay on SNB-75, 6.93 µM (inactive); with SK-MEL-28, 8.65 µM (inactive); with MOLT-4, 2.71 µM (inactive); with HT-29 it was 2.2 µM (inactive); in the assay on MDA-MB-231, 2.79 µM (inactive). In addition, the GI50 with NCI/ADR-RES is 2.04 µM (inactive); in the assay with UACC-62, 3.19 µM (inactive); in the assay with OVCAR-8, 5.53 µM (inactive); in the assay with HOP-92, 2.08 µM (inactive); in the assay on MDA-N, 2.03 µM (inactive); in the assay with TK-10 it was 10.7 µM (inactive). Also, the GI50 in the assay with SW-620 is 6.37 µM (inactive); with UO-31 it was 6.01 µM (inactive); in the assay with ACHN, 10.9 µM (inactive); in the assay on COLO 205, 2.38 µM (inactive); in the assay on SK-OV-3 it was 4.63 µM (inactive).
For `CCNc1ccc2c(c1)C(=O)N(OS(C)(=O)=O)C2=O`, the GI50 with SN12C was > 100 µM (inactive); in the assay on SK-MEL-28 it was 57.5 µM (inactive); in the assay with OVCAR-3, 40.7 µM (inactive); with HT-29, > 100 µM (inactive); in the assay with MDA-MB-231 it was > 100 µM (inactive); with NCI/ADR-RES it was > 100 µM (inactive). Further, the GI50 was > 100 µM (inactive) in the assay with UACC-62; 32.1 µM (inactive) in the assay on CCRF-CEM; > 100 µM (inactive) in the assay on OVCAR-8; > 100 µM (inactive) with HOP-92; 89.7 µM (inactive) in the assay on MDA-N; > 100 µM (inactive) with TK-10. For the same compound, the GI50 is 37.6 µM (inactive) in the assay on SW-620; 62.5 µM (inactive) with UO-31; 37.7 µM (inactive) with ACHN; 42.7 µM (inactive) in the assay with COLO 205; > 100 µM (inactive) with SF-295; > 100 µM (inactive) with SK-OV-3.
`COc1ccc(/C=N/N2C(=O)c3c(N)c(C#N)c(-c4ccccc4)c(-c4ccccc4)c3C2=O)cc1`: the GI50 in the assay on SN12C was > 100 µM (inactive); in the assay with SNB-75 it was 88.7 µM (inactive); with SK-MEL-28, > 100 µM (inactive); in the assay on OVCAR-3, > 100 µM (inactive); with MOLT-4, > 100 µM (inactive); in the assay on MDA-MB-231 it was > 100 µM (inactive). In addition, the GI50 with NCI/ADR-RES was > 100 µM (inactive); with UACC-62, > 100 µM (inactive); in the assay with CCRF-CEM, > 100 µM (inactive); with OVCAR-8, 82.4 µM (inactive); in the assay with HOP-92 it was 84.3 µM (inactive); in the assay with MDA-N, > 100 µM (inactive). For the same compound, the GI50 is 42.4 µM (inactive) in the assay on TK-10; > 100 µM (inactive) in the assay with SW-620; > 100 µM (inactive) with UO-31; 44.7 µM (inactive) with ACHN; > 100 µM (inactive) in the assay on COLO 205; 70.8 µM (inactive) with SF-295.
With `CCN(CC)c1ccc(/C=C/C2=NN(c3cccc(S(=O)(=O)O)c3)C3(C2)SCC(=O)N3c2nc3ccccc3s2)cc1` (centres undefined), the GI50 in the assay with SN12C is 59 µM (inactive); in the assay on SNB-75, 74.3 µM (inactive); in the assay on SK-MEL-28, 80.4 µM (inactive); in the assay with MOLT-4, 22 µM (inactive); with HT-29, 36.6 µM (inactive); in the assay with MDA-MB-231 it was 55.1 µM (inactive). In addition, the GI50 in the assay with NCI/ADR-RES is > 100 µM (inactive); in the assay with UACC-62, 37.7 µM (inactive); in the assay on CCRF-CEM, 21.4 µM (inactive); with OVCAR-8, 33.6 µM (inactive); with HOP-92, 44.9 µM (inactive); with MDA-N, 39 µM (inactive). In addition, the GI50 in the assay with TK-10 was 23.1 µM (inactive); in the assay with SW-620 it was 42.9 µM (inactive); with UO-31, 29.9 µM (inactive); in the assay with ACHN it was 25.8 µM (inactive); with COLO 205 it was 24.1 µM (inactive).
For `O=C1C=C(c2ccccc2)O/C1=C\C(=O)c1ccc(Cl)cc1`, the GI50 in the assay on SN12C was 3.66 µM (inactive); in the assay with SNB-75 it was 4.84 µM (inactive); with SK-MEL-28, 19.9 µM (inactive); in the assay with OVCAR-3 it was 22.1 µM (inactive); in the assay with MOLT-4 it was 20.5 µM (inactive); in the assay on HT-29 it was 3.58 µM (inactive). Moreover, the GI50 with MDA-MB-231 was 18.1 µM (inactive); in the assay with NCI/ADR-RES it was 23.2 µM (inactive); in the assay on UACC-62, 15.6 µM (inactive); with OVCAR-8, 22.6 µM (inactive); in the assay with HOP-92 it was 19.2 µM (inactive); in the assay with MDA-N, 23.6 µM (inactive). In addition, the GI50 with TK-10 is 20.1 µM (inactive); in the assay with SW-620 it was 1.73 µM (inactive); in the assay on UO-31, 20.7 µM (inactive); in the assay with ACHN, 16.1 µM (inactive); with COLO 205 it was 16.3 µM (inactive); with SK-OV-3, 98.4 µM (inactive).
In the case of `CC(Oc1ccccc1Cl)C(=O)NN1C(=O)CC(=O)NC1=S` (centres undefined), the GI50 in the assay on SN12C, in the assay with SNB-75, in the assay with SK-MEL-28, with OVCAR-3, in the assay on MOLT-4 and in the assay with HT-29 was > 100 µM (inactive) each time. Also, the GI50 in the assay on MDA-MB-231 is > 100 µM (inactive); in the assay on NCI/ADR-RES it was > 100 µM (inactive); in the assay with UACC-62, 46.1 µM (inactive); in the assay with OVCAR-8, > 100 µM (inactive); in the assay on HOP-92, > 100 µM (inactive); in the assay with MDA-N it was > 100 µM (inactive). In addition, the GI50 in the assay with TK-10 was > 100 µM (inactive); with SW-620, > 100 µM (inactive); in the assay on UO-31, 92.5 µM (inactive); in the assay on ACHN, 63.7 µM (inactive); in the assay on COLO 205, > 100 µM (inactive); in the assay on SF-295, 89.5 µM (inactive). Besides, the GI50 in the assay on SK-OV-3 is > 100 µM (inactive).
Regarding `Clc1ccc(-c2cn3c(nc4ccccc43)c(/C=C/c3ccco3)n2)cc1`, the GI50 was 50 µM (inactive) in the assay on SN12C; 18.4 µM (inactive) in the assay on SNB-75; 57.9 µM (inactive) in the assay with SK-MEL-28; 34.4 µM (inactive) with OVCAR-3; 62.8 µM (inactive) in the assay on HT-29; 28.4 µM (inactive) in the assay on MDA-MB-231. The GI50 with NCI/ADR-RES was 42.1 µM (inactive); in the assay on UACC-62, 41.8 µM (inactive); in the assay with HOP-92 it was 16.5 µM (inactive); in the assay on MDA-N, 72.8 µM (inactive); in the assay on TK-10, 24 µM (inactive); in the assay on SW-620, 36.8 µM (inactive). For the same compound, the GI50 is 48.2 µM (inactive) in the assay on UO-31, 37.9 µM (inactive) in the assay with ACHN, 41.7 µM (inactive) in the assay with COLO 205 and 90.2 µM (inactive) in the assay with SK-OV-3.
`O=C1c2cc(Cc3ccccc3)c(=O)c(Cc3ccccc3)cc2C(=O)c2cc(Cc3ccccc3)c(=O)c(Cc3ccccc3)cc21`: the GI50 is > 100 µM (inactive) in the assay with SN12C; > 100 µM (inactive) in the assay on SNB-75; > 100 µM (inactive) with SK-MEL-28; > 100 µM (inactive) with OVCAR-3; 97.3 µM (inactive) in the assay on MOLT-4; > 100 µM (inactive) with HT-29. Also, the GI50 in the assay on MDA-MB-231 is > 100 µM (inactive); in the assay with NCI/ADR-RES it was > 100 µM (inactive); with CCRF-CEM, 74.5 µM (inactive); in the assay on OVCAR-8, > 100 µM (inactive); in the assay with HOP-92 it was > 100 µM (inactive); in the assay on MDA-N, > 100 µM (inactive). In addition, the GI50 with TK-10, in the assay with SW-620, in the assay on UO-31, with ACHN, in the assay with COLO 205 and with SF-295 was > 100 µM (inactive) each time.
As for `CCN(CC)CCCNc1nc2ccccc2[n+]([O-])n1`, the GI50 in the assay on SN12C was > 100 µM (inactive); in the assay on SNB-75, 64.1 µM (inactive); in the assay on SK-MEL-28 it was > 100 µM (inactive); in the assay with OVCAR-3, > 100 µM (inactive); in the assay on MOLT-4, > 100 µM (inactive); with HT-29, > 100 µM (inactive). Moreover, the GI50 in the assay on MDA-MB-231, with NCI/ADR-RES, in the assay with UACC-62, with CCRF-CEM, in the assay with OVCAR-8 and in the assay on HOP-92 was > 100 µM (inactive) each time. For the same compound, the GI50 in the assay on MDA-N, in the assay with TK-10, in the assay on SW-620, with UO-31, with ACHN and in the assay with COLO 205 was > 100 µM (inactive) in each case. Moreover, the GI50 with SF-295 is > 100 µM (inactive).
In the case of `O=C(CCc1cccc(O)c1)NCCc1ccc(O)cc1`, the GI50 in the assay on SN12C, in the assay with SK-MEL-28, in the assay with OVCAR-3, in the assay on MOLT-4, in the assay on HT-29 and in the assay on MDA-MB-231 was > 100 µM (inactive) each time. For the same compound, the GI50 in the assay on NCI/ADR-RES, in the assay with UACC-62, in the assay with CCRF-CEM, with OVCAR-8, in the assay on HOP-92 and in the assay with MDA-N was > 100 µM (inactive) each time. For the same compound, the GI50 with TK-10 is > 100 µM (inactive); in the assay on UO-31, > 100 µM (inactive); in the assay on ACHN, 95.9 µM (inactive); in the assay on COLO 205, > 100 µM (inactive); in the assay with SF-295 it was > 100 µM (inactive); in the assay with SK-OV-3 it was > 100 µM (inactive).
For the compound `COC(=O)c1cc(C#Cc2cc(OC)ccc2OC)ccc1OC`, the GI50 in the assay on SNB-75 is 33.8 µM (inactive); in the assay with SK-MEL-28 it was > 100 µM (inactive); with MOLT-4, 19.3 µM (inactive); in the assay on HT-29, 38.5 µM (inactive); with MDA-MB-231 it was > 100 µM (inactive); in the assay on NCI/ADR-RES it was 47.5 µM (inactive). For the same compound, the GI50 is 37.1 µM (inactive) with OVCAR-8; 22.9 µM (inactive) in the assay on HOP-92; 30.3 µM (inactive) with MDA-N; 54.6 µM (inactive) with TK-10; > 100 µM (inactive) in the assay with SW-620; 40.1 µM (inactive) in the assay with UO-31. The GI50 with ACHN is 42.7 µM (inactive); with COLO 205 it was 24.5 µM (inactive); with SF-295 it was < 0.01 µM (active); in the assay on SK-OV-3, 45.4 µM (inactive).

In general, GI50 refers to the concentration at which growth is held to half of that of the control.
